Measurements: patent EP4678629A1, “IONIZABLE LIPID MOLECULE, PREPARATION METHOD THEREFOR AND USE THEREOF” (Maxirna (Shanghai) Pharmaceutical Co., Ltd., priority 2023, dated 2024)

How the values were obtained:
[1] = Size and polydispersity index (PDI) of the lipid nanoparticle by dynamic light scattering; assay type: physicochemical; settings: LNP encapsulating eGFP mRNA, ionizable lipid/DOPE/cholesterol/DMG-PEG2000 50/10/48.25/1.25 mol%, N/P 12; for Particle size: in nm (unit assumed)
Outline: (§1)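 LNPs were made by microfluidic mixing of ionizable lipid/DOPE/cholesterol/DMG-PEG2000 (50/10/48.25/1.25 mol%) in ethanol with eGFP mRNA in 20 mM citrate pH 6.1, N/P 12, then ultrafiltered into DPBS and 0.2 µm filtered. Size and PDI by DLS at 173° backscatter; encapsulation by Ribogreen.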

[2] = Encapsulation efficiency of the lipid nanoparticle (eGFP mRNA) by Ribogreen method; assay type: physicochemical; settings: LNP encapsulating eGFP mRNA, ionizable lipid/DOPE/cholesterol/DMG-PEG2000 50/10/48.25/1.25 mol%, N/P 12
Outline: as §1

mice = test: In vivo transfection with Fluc-mRNA lipid nanoparticle (LNP preparation), live imaging of fluorescence intensity; settings: 0.5 mg/kg; for fluorescence intensity: intravenous and intramuscular injection
Experimental: According to the method described in Example II , LNP lipid nanoparticles of Fluc-mRNA (Maxirna FLuc mRNA, 1 mg/mL), SM-102 (CAS number: 2089251-47-6, A.V.T (Shanghai) Pharmaceutical Co., Ltd.), and positive control 1 (US10195156B2, it was prepared according to the method described in the above embodiment, the main difference lay in replacing 2-((3-aminopropyl)amino)ethane-1-ol with 2-((2-aminoethyl)amino)ethane-1-ol, the structure was as shown in FIG. 1) were prepared respectively. Cholesterol (Chol), DSPC, DOPE, and DMG-PEG2000 were purchased from A.V.T (Shanghai) Pharmaceutical Co., Ltd. Mice were randomly selected, and the lipid nanoparticles were injected intravenously and intramuscularly (4 mice per group) at a dosage of 0.5 mg/kg. Tris and Fluc-mRNA were directly injected as controls. After 6 hours, 200 ul of 10 mg/ml D-luciferin potassium salt was respectively injected into each mouse through the tail vein. After 10 minutes, the mice were placed under a live imaging system to observe the total fluorescence intensity of each mouse and take photos for recording. After 24 hours, the mice were placed under the live imaging system to observe the total fluorescence intensity of each mouse and take photos for recording. Table 2: Preparation parameters of each LNP
(§2) LNP lipid nanoparticles of Fluc-mRNA were respectively prepared using the method described in Example II. Mice were randomly selected, and the lipid nanoparticles were injected intramuscularly (2 mice per group) at a dosage of 0.5 mg/kg. Tris was directly injected as a control. After 6 hours, 200 ul of 10 mg/ml D-luciferin potassium salt was respectively injected into each mouse through the tail vein. After 10 minutes, the mice were placed under a live imaging system to observe the total fluorescence intensity of each mouse and take photos for recording. After 24 hours, the mice were placed under the live imaging system to observe the total fluorescence intensity of each mouse and take photos for recording. Table 3: Preparation parameters of each LNP
as §2, with “II .” for “II.”, “(3” for “(2”, “4:” for “3:”

[3] = In vitro transfection of cells with eGFP-mRNA lipid nanoparticle (LNP preparation), fluorescence imaging and flow cytometry; assay type: cell-based, mouse; settings: mouse, dc2.4 cells, 200 ng of mRNA per well, after 24 hours; read-out: Cell viability, %
Outline: (§3)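 Mouse bone marrow-derived DC2.4 dendritic cells seeded at 2 × 10^5 cells/well in DMEM with 10% FBS, transfected with eGFP-mRNA LNPs the next day at 37 °C, 5% CO2. After 24 hours, viability, eGFP-positive rate and mean fluorescence intensity read by fluorescence imaging and flow cytometry.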

DC2.4 cells = test: as above; assay type: cell-based, mouse; settings: DC2.4 cells, 200 ng of mRNA per well, after 24 hours; for Positive rate, %: eGFP positivity rate; for Cell viability, %: 1440 min
Outline: as §3

[4] = Fluc-mRNA LNP of Table 3 (DSPC), intramuscular, 6 and 24 hours
[5] = Fluc-mRNA LNP of Table 2 (DOPE), intramuscular
[6] = Fluc-mRNA LNP of Table 2 (DOPE), 6 and 24 hours
[7] = Fluc-mRNA LNP of Table 4 (DSPC), intramuscular, 6 and 24 hours

Row | SMILES | PDI [1] | Particle size [1] | Encapsulation rate, % [2] [%] | whole-body expression (mice; [4]) | viability at 24 h [3] [%] | Positive rate, % (DC2.4 cells) [%] | fluorescence intensity, intramuscular injection administration (mice; [5]) | fluorescence intensity (mice; [6]) | expression in the chest and abdomen (mice; [5]) | Cell viability, % (DC2.4 cells) [%] | injection site (mice; [7]) | whole-body expression (mice; [7])
1 | CCCCCCCCCCCOC(=O)CCCCCCCN(CCO)CCCN(CCCCCCCC(=O)OCCCCCCCCCCC)CCCCCCCC(=O)OCCCCCCCCCCC [Example 1, Diundecyl 8,8'-((3-((2-hydroxyethyl)(8-oxo-8-(undecyloxy)octyl)amino)propyl)azanediyl)dioctanoate] | 0.18 | 59.34 | 96.32 | even better than SM-102 | 92 | 91.23 | – | – | – | – | – | –
2 | CCCCCCCCCCCOC(=O)CCCCCN(CCO)CCCN(CCCCCC(=O)OCCCCCCCCCCC)CCCCCC(=O)OCCCCCCCCCCC [Example 11, Diundecyl 6,6'-((3-((2-hydroxyethyl)(6-oxo-6-(undecyloxy)hexyl)amino)propyl)azanediyl)dihexanoate] | 0.17 | 97.96 | 90.99 | – | 84.3 | 95.68 | still maintain high fluorescence intensity | stronger than that of positive control 1 and comparable to SM-102 | – | – | – | –
3 | CCCCCC/C=C\COC(=O)CCCCCCCN(CCCCCCCC(=O)OC/C=C\CCCCCC)CCCN(CCCCCCCC(=O)OC/C=C\CCCCCC)CCCCCCCC(=O)OC/C=C\CCCCCC [Example 21, Tetra((Z)-non-2-en-1-yl)8,8',8",8‴-(propane-1,3-diyldi(azanetriyl))tetraoctanoate] | – | – | – | – | – | – | still maintain high fluorescence intensity | stronger than that of positive control 1 and comparable to SM-102 | much lower than that of SM-102 | – | – | –
4 | CCCCCCCCCCCCCOC(=O)CCCN(CCCO)CCCCN(CCCC(=O)OCCCCCCCCCCCCC)CCCC(=O)OCCCCCCCCCCCCC [Example 101, 4,4'-ditridecyl((4-((3-hydroxypropyl)(4-oxo-4-(tridecyloxy)butyl)amino)butyl)azetidinyl)dibutanoate] | 0.14 | – | 92.68 | – | 93.4 | 94.85 | – | – | – | – | – | –
5 | CCCCCCCCCCCCOC(=O)CCCN(CCCO)CCCCN(CCCC(=O)OCCCCCCCCCCCC)CCCC(=O)OCCCCCCCCCCCC [Example 103] | 0.14 | 94.10 | 94.31 | – | 95.3 | 93.80 | – | – | – | – | – | –
6 | CCCCCCCCCCCOC(=O)/C=C/CN(C/C=C/C(=O)OCCCCCCCCCCC)CCCN(C/C=C/C(=O)OCCCCCCCCCCC)CCCO [Example 106] | 0.28 | – | 65.99 | – | 93.9 | 78.77 | – | – | – | – | – | –
7 | CCCCCCCCCCCOC(=O)CCCCN(CCO)CCCN(CCCCC(=O)OCCCCCCCCCCC)CCCCC(=O)OCCCCCCCCCCC [Example 107] | 0.13 | – | 95.47 | – | 92.9 | 92.10 | – | – | – | – | – | –
8 | CCCCCCCCCCCOC(=O)CCCN(CCO)CCCN(CCCC(=O)OCCCCCCCCCCC)C(=O)CCC(=O)OCCCCCCCCCCC [Example 109] | 0.33 | – | 79.70 | – | 89 | 71.17 | – | – | – | – | – | –
9 | CCCCCCCCCCOC(=O)CCCN(CCCO)CCCN(CCCC(=O)OCCCCCCCCCC)CCCC(=O)OCCCCCCCCCC [Example 113, Didecyl 4,4'-((3-((4-(decyloxy)-4-oxobutyl)(3-hydroxypropyl)amino)propyl)azetidinyl)dibutanoate] | 0.14 | 88.62 | 91.23 | – | 93.2 | 92.51 | – | – | – | – | – | –

The next lines start with results.

Row | PDI [1] | Particle size [1] | Encapsulation rate, % [2] [%] | SMILES | whole-body expression (mice; [4]) | viability at 24 h [3] [%] | Positive rate, % (DC2.4 cells) [%] | fluorescence intensity, intramuscular injection administration (mice; [5]) | fluorescence intensity (mice; [6]) | expression in the chest and abdomen (mice; [5]) | Cell viability, % (DC2.4 cells) [%] | injection site (mice; [7]) | whole-body expression (mice; [7])
10 | – | 99.10 | 99.10 | CCCCC/C=C\C/C=C\CCCCCCCCOC(=O)CCCN(CCCO)CCCN(CCCC(=O)OCCCCCCCC/C=C\C/C=C\CCCCC)CCCC(=O)OCCCCCCCC/C=C\C/C=C\CCCCC [Example 81, Di((9Z,12Z)-octadeca-9,12-dien-1-yl)4,4'-((3-((3-hydroxypropyl)(4-(((9Z,12Z)-octadeca-9,12-dien-1-yl)oxo)-4-oxobutyl)amino)propyl)azanediyl)dibutanoate] | even better than SM-102 | – | 93.39 | – | – | – | 76.4 | – | –
11 | 0.09 | 96.38 | 94.22 | CCCCC/C=C\C/C=C\CCCCCCCCOC(=O)CCCN(CCCO)CCCCN(CCCC(=O)OCCCCCCCC/C=C\C/C=C\CCCCC)CCCC(=O)OCCCCCCCC/C=C\C/C=C\CCCCC [Example 89] | – | – | 92.26 | – | – | – | 94.0 | superior to those of positive control 1 and SM-102 | superior to those of positive control 1 and SM-102
12 | 0.16 | – | 95.12 | CCCCC/C=C\C/C=C\CCCCCCCCOC(=O)CCCN(CCCO)CCCCN(CCCC(=O)OCCCCCCCC/C=C\C/C=C\CCCCC)CCCC(=O)OCCCCCCCC/C=C\C/C=C\CCCCC [Example 104] | – | 96.7 | 92.63 | – | – | – | – | – | –
13 | 0.13 | 95.34 | 92.30 | CCCCC/C=C\C/C=C\CCCCCCCCOC(=O)CCCN(CCCO)CCCN(CCCC(=O)OCCCCCCCC/C=C\C/C=C\CCCCC)CCCC(=O)OCCCCCCCC/C=C\C/C=C\CCCCC [Example 108] | – | 92.3 | 93.99 | – | – | – | – | – | –
14 | 0.12 | 96.92 | 92.91 | CCCCC/C=C\C/C=C\CCCCCCCCOC(=O)CCCCN(CCCO)CCCN(CCCCC(=O)OCCCCCCCC/C=C\C/C=C\CCCCC)CCCCC(=O)OCCCCCCCC/C=C\C/C=C\CCCCC [Example 111] | – | 91 | 95.82 | – | – | – | – | – | –
15 | 0.11 | 89.42 | 91.22 | CCCCCCCCCCCCOC(=O)CCCN(CCCO)CCCN(CCCC(=O)OCCCCCCCCCCCC)CCCC(=O)OCCCCCCCCCCCC [Example 112, 4,4'-didodecyl((3-((4-(dodecoxy)-4-oxobutyl)(3-hydroxypropyl)amino)propyl)azetidinyl)dibutanoate] | – | 92.3 | 95.39 | – | – | – | – | – | –
16 | 0.16 | 89.25 | 92.78 | CCCCC/C=C\C/C=C\CCCCCCCCOC(=O)CCCCCCN(CCCO)CCCN(CCCCCCC(=O)OCCCCCCCC/C=C\C/C=C\CCCCC)CCCCCCC(=O)OCCCCCCCC/C=C\C/C=C\CCCCC [Example 114] | – | 93.4 | 91.74 | – | – | – | – | – | –
